Experiment: TLC analysis of H-Ala-O-PG to evaluate polarity reduction by protecting groups
Format: physicochemical
Conditions: hexane/ethyl acetate=2/1, L-Ala with terminal carboxyl protected by PG (H-Ala-O-PG)
Excerpt: As protecting groups for the terminal carboxyl groups of amino acid/peptide compounds, the silicon-containing hydrophobic substituents TAG1(Si), TAG2(Si), and TAG3(Si) synthesized in Examples 1 to 3, the conventionally known protecting group tBu group, and the previously mentioned TAGa group (alkoxybenzyl ester group) represented by the following formula, which is described in Non-Patent Literature 6 (Org. Process Res. Dev. 2019, Vol. 23, p. 2576-2581), were used to protect the terminal carboxyl of an amino acid (L-Ala), and their effects on polarity reduction were evaluated.

Rf value: 0.07
Compound: C[C@H](N)C(=O)OC(C)(C)C [tBu, reference compound]
